Test results from EP4813991A1 (iLeadBMS Co., Ltd., priority 2023, dated 2025).
Like-named read-outs stand apart in the source and are kept apart here.

What was measured:
[1] = target: CDK1 (Homo sapiens, UniProt P06493); assay: CDK1 kinase inhibitory activity assay and selectivity over CDK12; type: biochemical; conditions: for IC50: kinase reaction 120 minutes, 33P-gamma-ATP; for CDK1/CDK12: ratio of CDK1 IC50 to CDK12 IC50
Description: (§1) Before initiating the CDK1 and CDK2 kinase reactions, each Example compound was dissolved and diluted in DMSO as a solvent across 9 concentration ranges at room temperature. The diluted solutions were then incubated with a mixture of kinase and substrate (and cofactors, if required) for 20 minutes. Next, radioisotope-labeled ATP (^33P-gamma-ATP) was added to proceed with the kinase reaction at room temperature for 120 minutes. After the reaction was completed, the reaction mixture was transferred to a filter paper that binds the radioisotope-labeled catalytic product (^33P-substrate). Unreacted ^33P-ATP was removed by washing with 0.75 % phosphoric acid, and then the radioactive phosphorylated substrate remaining on the filter paper was measured. Kinase activity data were expressed as a percentage of the kinase activity remaining in the test sample compared to a DMSO control group. The half-maximal inhibitory concentration (IC50) for each kinase was calculated using Prism software.
(§2) The CDK1 and CDK2 kinase inhibitory activities of the Example compounds measured by the above method were evaluated according to the following criteria, and the results are presented in Table 14.

[2] = target: T1, CDK12 (Homo sapiens, UniProt Q9NYV4); assay: CDK12 kinase inhibitory activity assay (33P-ATP filter binding); type: biochemical
T1 sequence (Q9NYV4 whole entry, species assumed): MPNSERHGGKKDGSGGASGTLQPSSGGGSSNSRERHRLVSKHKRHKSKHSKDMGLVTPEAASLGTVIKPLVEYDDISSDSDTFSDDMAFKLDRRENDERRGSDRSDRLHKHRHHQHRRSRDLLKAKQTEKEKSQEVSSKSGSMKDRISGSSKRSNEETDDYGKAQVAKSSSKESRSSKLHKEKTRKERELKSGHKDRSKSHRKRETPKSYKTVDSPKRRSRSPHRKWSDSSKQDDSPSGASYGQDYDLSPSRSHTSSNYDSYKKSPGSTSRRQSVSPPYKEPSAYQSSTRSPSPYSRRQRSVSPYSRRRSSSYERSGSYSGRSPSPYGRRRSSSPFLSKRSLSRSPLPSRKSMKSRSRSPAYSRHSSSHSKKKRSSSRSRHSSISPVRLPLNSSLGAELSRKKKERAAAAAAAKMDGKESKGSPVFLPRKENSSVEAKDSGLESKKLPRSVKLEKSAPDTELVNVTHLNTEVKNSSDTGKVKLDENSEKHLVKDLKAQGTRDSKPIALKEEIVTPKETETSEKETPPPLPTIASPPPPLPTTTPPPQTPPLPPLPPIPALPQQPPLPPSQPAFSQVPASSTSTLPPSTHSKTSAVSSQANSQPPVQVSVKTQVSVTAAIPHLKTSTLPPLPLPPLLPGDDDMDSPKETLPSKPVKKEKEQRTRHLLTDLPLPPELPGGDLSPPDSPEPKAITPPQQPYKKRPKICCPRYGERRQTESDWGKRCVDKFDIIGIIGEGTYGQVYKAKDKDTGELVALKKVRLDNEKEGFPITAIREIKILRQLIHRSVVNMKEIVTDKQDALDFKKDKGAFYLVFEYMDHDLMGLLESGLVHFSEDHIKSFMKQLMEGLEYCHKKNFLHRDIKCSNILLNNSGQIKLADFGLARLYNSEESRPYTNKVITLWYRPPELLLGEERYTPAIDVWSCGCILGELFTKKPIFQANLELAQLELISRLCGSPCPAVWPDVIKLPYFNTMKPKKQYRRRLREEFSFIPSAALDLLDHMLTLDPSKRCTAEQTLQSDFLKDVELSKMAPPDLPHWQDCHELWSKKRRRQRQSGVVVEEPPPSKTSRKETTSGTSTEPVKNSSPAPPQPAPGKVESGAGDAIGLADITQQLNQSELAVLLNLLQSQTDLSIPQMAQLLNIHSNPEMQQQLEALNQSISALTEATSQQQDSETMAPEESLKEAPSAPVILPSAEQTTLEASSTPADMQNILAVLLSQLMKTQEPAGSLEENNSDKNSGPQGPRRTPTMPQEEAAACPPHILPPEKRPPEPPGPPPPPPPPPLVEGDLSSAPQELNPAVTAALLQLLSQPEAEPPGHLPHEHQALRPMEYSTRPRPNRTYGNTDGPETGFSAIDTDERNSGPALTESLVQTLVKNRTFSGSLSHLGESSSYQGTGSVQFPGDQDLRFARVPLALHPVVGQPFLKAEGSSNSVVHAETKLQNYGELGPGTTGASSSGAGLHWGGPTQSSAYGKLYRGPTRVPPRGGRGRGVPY
T1 sequence (O75909 whole entry partner, species assumed): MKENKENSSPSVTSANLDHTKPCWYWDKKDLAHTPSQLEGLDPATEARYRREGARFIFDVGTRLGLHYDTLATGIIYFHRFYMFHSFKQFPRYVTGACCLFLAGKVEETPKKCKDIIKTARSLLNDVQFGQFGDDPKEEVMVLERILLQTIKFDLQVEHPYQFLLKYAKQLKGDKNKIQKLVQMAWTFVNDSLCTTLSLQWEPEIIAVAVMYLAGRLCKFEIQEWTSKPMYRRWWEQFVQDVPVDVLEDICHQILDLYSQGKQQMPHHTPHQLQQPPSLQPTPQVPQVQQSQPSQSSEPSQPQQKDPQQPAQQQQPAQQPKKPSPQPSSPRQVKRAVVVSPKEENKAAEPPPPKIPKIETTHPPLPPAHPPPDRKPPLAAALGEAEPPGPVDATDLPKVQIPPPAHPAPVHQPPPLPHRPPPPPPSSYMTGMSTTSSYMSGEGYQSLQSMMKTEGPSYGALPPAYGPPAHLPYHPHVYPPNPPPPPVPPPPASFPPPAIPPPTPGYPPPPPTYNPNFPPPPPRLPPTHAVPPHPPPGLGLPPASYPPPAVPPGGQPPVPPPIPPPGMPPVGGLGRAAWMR
Procedure, shortened: (§3)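 Compound in 9 concentrations pre-incubated 20 min with kinase and substrate, then ^33P-γ-ATP added and reacted 120 min at room temperature. Phosphorylated substrate captured on filter, washed with 0.75 % phosphoric acid and counted; activity as % of DMSO control, IC50 fitted.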

[3] = target: CDK13 (Homo sapiens, UniProt Q14004); assay: CDK13 kinase inhibitory activity assay (33P-ATP filter binding); type: biochemical
CDK13, sequence (Q14004 whole entry, species assumed): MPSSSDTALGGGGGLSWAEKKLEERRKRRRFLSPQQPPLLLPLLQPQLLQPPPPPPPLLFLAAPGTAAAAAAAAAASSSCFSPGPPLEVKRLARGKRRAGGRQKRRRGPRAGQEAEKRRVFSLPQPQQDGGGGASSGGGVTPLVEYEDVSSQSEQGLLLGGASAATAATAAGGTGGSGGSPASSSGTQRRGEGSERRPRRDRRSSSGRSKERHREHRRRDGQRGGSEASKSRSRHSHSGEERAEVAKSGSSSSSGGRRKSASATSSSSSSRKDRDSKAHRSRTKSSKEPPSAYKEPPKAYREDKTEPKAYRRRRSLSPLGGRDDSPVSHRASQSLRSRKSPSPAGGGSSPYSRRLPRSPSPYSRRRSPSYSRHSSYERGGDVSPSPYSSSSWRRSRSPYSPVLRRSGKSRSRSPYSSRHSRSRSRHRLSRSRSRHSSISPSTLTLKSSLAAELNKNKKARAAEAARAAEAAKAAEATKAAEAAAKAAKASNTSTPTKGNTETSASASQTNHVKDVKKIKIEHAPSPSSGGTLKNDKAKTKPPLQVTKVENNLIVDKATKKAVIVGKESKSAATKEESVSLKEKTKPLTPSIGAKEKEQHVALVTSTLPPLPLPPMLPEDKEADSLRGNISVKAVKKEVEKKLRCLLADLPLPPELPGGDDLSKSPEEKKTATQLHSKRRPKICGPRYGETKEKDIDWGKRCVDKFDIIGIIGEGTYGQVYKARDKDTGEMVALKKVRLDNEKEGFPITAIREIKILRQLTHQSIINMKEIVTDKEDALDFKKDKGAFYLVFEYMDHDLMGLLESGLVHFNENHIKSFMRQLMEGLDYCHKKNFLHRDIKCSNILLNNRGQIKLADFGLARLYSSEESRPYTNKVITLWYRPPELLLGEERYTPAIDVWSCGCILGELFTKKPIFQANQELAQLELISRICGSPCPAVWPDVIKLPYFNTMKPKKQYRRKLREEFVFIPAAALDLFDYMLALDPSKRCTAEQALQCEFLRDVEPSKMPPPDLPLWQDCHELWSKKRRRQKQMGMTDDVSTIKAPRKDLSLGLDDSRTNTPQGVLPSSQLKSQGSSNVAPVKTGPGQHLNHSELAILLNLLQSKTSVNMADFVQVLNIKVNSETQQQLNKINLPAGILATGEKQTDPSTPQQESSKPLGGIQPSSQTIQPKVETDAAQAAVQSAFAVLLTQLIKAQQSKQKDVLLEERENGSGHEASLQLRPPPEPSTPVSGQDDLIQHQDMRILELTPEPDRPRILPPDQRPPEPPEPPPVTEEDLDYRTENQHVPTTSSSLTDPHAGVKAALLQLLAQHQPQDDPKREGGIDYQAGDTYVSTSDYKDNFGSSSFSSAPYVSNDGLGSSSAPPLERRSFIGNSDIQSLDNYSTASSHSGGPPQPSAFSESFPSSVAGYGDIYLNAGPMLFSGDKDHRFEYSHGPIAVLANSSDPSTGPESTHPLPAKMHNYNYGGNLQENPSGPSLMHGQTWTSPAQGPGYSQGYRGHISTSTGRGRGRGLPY
CDK13, sequence (O75909 whole entry partner, species assumed): as the sequence (O75909 whole entry partner, species assumed) above
Procedure, shortened: as §3

[4] = system: MDA-MB-231 breast cancer cells; assay: Proliferation inhibitory activity assay against MDA-MB-231 breast cancer cells; type: cell-based; conditions: Homo sapiens, 72 hours, CellTiter Glo, relative IC50
Procedure, shortened: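 Cells grown in L-15 with 10% FBS at 37 °C, 0% CO2, then exposed next day to compounds at 9 concentrations (DMSO vehicle) for 72 h. Viability read by CellTiter Glo luminescence; relative IC50 from dose-response curve fit.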

[5] = target: CDK2 (Homo sapiens, UniProt P24941); assay: CDK2 kinase inhibitory activity assay and selectivity over CDK12; type: biochemical; conditions: for IC50: kinase reaction 120 minutes, 33P-gamma-ATP; for CDK2/CDK12: ratio of CDK2 IC50 to CDK12 IC50
Description: as §1, §2

[6] = target: T1, CDK12; assay: Cellular CDK12 inhibitory activity assay (Ser2 phosphorylation of RNA polymerase II subunit B1 CTD in MDA-MB-231 cells); type: cell-based; parameters: using MDA-MB-231 breast cancer cells; endogenous in cells; host or cells: MDA-MB-231; conditions: MDA-MB-231 cells, 6 hours treatment; read-out: pRpbl CTD S2 IC50
Procedure, shortened: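 MDA-MB-231 cells in L-15 with 10 % FBS were treated with compound at 9 concentrations for 6 h at 37 °C, 0 % CO2. In-Cell Western read phospho-Ser2 and total RNA polymerase II CTD on a Li-COR Odyssey; IC50 from 4-parameter dose-response fit.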

[7] = kinase reaction 120 minutes, 33P-gamma-ATP, read-out: CDK12 IC50
[8] = kinase reaction 120 minutes, 33P-gamma-ATP, read-out: CDK13 IC50

CDK1, sequence (P06493 whole entry, species assumed): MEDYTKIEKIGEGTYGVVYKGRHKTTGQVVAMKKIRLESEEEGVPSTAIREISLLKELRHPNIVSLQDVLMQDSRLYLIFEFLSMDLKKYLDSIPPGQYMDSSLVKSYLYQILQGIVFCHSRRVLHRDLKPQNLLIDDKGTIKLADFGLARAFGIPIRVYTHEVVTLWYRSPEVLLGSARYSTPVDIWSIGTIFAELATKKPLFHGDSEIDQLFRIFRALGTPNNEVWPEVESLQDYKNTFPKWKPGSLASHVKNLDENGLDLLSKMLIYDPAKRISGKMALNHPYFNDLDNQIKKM
CDK1, sequence (P14635 whole entry partner, species assumed): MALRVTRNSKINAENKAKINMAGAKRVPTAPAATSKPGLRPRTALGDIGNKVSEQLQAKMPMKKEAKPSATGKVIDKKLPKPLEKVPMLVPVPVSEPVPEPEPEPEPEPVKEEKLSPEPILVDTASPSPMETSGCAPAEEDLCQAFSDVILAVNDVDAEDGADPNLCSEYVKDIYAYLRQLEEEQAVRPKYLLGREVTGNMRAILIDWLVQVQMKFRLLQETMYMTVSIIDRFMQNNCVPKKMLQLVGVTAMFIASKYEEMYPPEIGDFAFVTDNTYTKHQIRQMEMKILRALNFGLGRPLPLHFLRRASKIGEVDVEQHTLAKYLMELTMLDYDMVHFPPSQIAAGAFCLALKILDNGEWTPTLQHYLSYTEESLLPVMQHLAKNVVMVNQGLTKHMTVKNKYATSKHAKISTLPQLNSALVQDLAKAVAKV

| Compound | IC50 [1] [µM] | CDK1/CDK12 [1] | IC50 [2, 7] [µM] | IC50 [3, 8] [µM] | IC50 [4] [µM] | IC50 [5] [µM] | CDK2/CDK12 [5] | IC50 [6] [µM] | IC50 [2] [µM] | IC50 [3] [µM] |
| --- | --- | --- | --- | --- | --- | --- | --- | --- | --- | --- |
| Fc1ccc2nc(CNc3cc(N4CCNCC4)nn4c(C(F)(F)F)cnc34)[nH]c2c1F [Example 17] | > 1 | A (CDK1/CDK12 or CDK2/CDK12 > 500-fold) | < 0.1 | < 0.1 | ≤ 0.05 | > 1 | B (100-fold < CDK1/CDK12 or CDK2/CDK12 ≤ 500-fold) | < 0.3 |  |  |
| COc1cccc2[nH]c(CNc3cc(N4CCOCC4)nn4c(C(F)(F)F)cnc34)nc12 [Example 73, N-((4-methoxy-1H-benzo[d]imidazol-2-yl)methyl)-6-morpholino-3-(trifluoromethyl)imidazo[1,2-b]pyridazin-8-amine] | > 1 | A (CDK1/CDK12 or CDK2/CDK12 > 500-fold) | < 0.1 | < 0.1 | ≤ 0.05 | > 1 | A (CDK1/CDK12 or CDK2/CDK12 > 500-fold) | 0.3 to 3 |  |  |
| Cc1cc2nc(CNc3cc(N4CCOCC4)nn4c(C(F)(F)F)cnc34)[nH]c2cc1C [Example 72, N-((5,6-dimethyl-1H-benzo[d]imidazol-2-yl)methyl)-6-morpholino-3-(trifluoromethyl)imidazo[1,2-b]pyridazin-8-amine] | > 1 | A (CDK1/CDK12 or CDK2/CDK12 > 500-fold) | < 0.1 | < 0.1 | ≤ 0.05 | > 1 | A (CDK1/CDK12 or CDK2/CDK12 > 500-fold) | < 0.3 |  |  |
| FC(F)(F)c1cnc2c(NCc3nc4cc(Cl)c(Cl)cc4[nH]3)cc(N3CCOCC3)nn12 [Example 68, N-((5,6-dichloro-1H-benzo[d]imidazol-2-yl)methyl)-6-morpholino-3-(trifluoromethyl)imidazo[1,2-b]pyridazin-8-amine] | > 1 | C (CDK1/CDK12 or CDK2/CDK12 ≤ 100-fold) | 0.1 to 0.5 | < 0.1 | ≤ 0.05 | > 1 | C (CDK1/CDK12 or CDK2/CDK12 ≤ 100-fold) | < 0.3 |  |  |
| COc1cc2nc(CNc3cc(N4CCOCC4)nn4c(C(F)(F)F)cnc34)[nH]c2cc1Cl [Example 71, N-((6-chloro-5-methoxy-1H-benzo[d]imidazol-2-yl)methyl)-6-morpholino-3-(trifluoromethyl)imidazo[1,2-b]pyridazin-8-amine] | > 1 | B (100-fold < CDK1/CDK12 or CDK2/CDK12 ≤ 500-fold) | < 0.1 | < 0.1 | ≤ 0.05 | > 1 | B (100-fold < CDK1/CDK12 or CDK2/CDK12 ≤ 500-fold) | < 0.3 |  |  |
| FC(F)(F)c1cnc2c(NCc3nc4cc(Cl)c(Cl)cc4[nH]3)cc(N3CC4CCC(C3)O4)nn12 [Example 42] | > 1 |  |  | < 0.1 | 0.05 to 0.5 | > 1 |  | 0.3 to 3 | 0.1 to 0.5 |  |
| Fc1ccc2nc(CNc3cc(N4C5CCC4COC5)nn4c(C(F)(F)F)cnc34)[nH]c2c1F [Example 7, 6-(3-oxa-8-azabicyclo[3.2.1]octan-8-yl)-N-((6,7-difluoro-1H-benzo[d]imidazol-2-yl)methyl)-3-(trifluoromethyl)imidazo[1,2-b]pyridazin-8-amine] | > 1 | C (CDK1/CDK12 or CDK2/CDK12 ≤ 100-fold) | 0.1 to 0.5 |  | ≤ 0.05 | > 1 | C (CDK1/CDK12 or CDK2/CDK12 ≤ 100-fold) | < 0.3 |  | < 0.1 |
| C[C@@H]1CN(c2cc(NCc3nc4cc(Cl)c(Cl)cc4[nH]3)c3ncc(C(F)(F)F)n3n2)C[C@H](C)N1 [Example 39, N-((5,6-dichloro-1H-benzo[d]imidazol-2-yl)methyl)-6-((3S,5R)-3,5-dimethylpiperazin-1-yl)-3-(trifluoromethyl)imidazo[1,2-b]pyridazin-8-amine] |  |  | < 0.1 | < 0.1 | ≤ 0.05 |  |  | < 0.3 |  |  |
